One data set concerns CAL51 WT cells. Nature of the data set: γH2AX foci after cisplatin treatment. The format is cell-based. Conditions: compared to the DMSO controls. As to the method:
7 MUS81 inhibitors synergize with cisplatin to reduce cancer cell viability. (A,B) U2OS cells were treated with DMSO, MU262, or MU876 at the indicated concentrations in combination with a range of cisplatin (0–5 μM) for 96–120 h. Cell viability was assessed by the Cy-Quant assay. The survival was normalized to the DMSO-treated control. Graphs were generated in Graphpad Prism using the nonlinear regression fitting model. n ≥ 3, error bars represent s.d. (C) CAL51 WT cells were treated with DMSO, MU262, or MU876 at the indicated concentrations at each passage over 2 weeks. Cisplatin (12 μM) was added for the last 24 h before harvest. DNA damage was assessed by quantifying γH2AX foci using fluorescence microscopy and CellProfiller software. Data were visualized plotted in R software. Red markers represent the median of γH2AX foci number per nucleus; blue markers represent the percentage of cells with ≥20 γH2AX foci per nucleus. n = 3, error bars represent s.d.; ****p <0.0001 (unpaired, two-tailed t-test). […]
U2OS, CAL51 WT, and CAL51 MUS81^–/– cells (10,000) were seeded in a 96-well plate 24 h before the treatment. […] The γH2AX foci were detected and quantified using CellProfiler (Broad Institute of MIT and Harvard). The analyzed data were plotted in RStudio software using R programming language.

The test system of a further data set is U2OS cells. The data set can be described thus: Annexin V apoptotic assay. The class given is cell-based. Conditions: 3 days. As to the method:
Given these promising findings, we further investigated the specificity of MU262 and MU876 and potential short-term cytotoxicity. To mirror the treatment duration used in BIR and HR assays, U2OS cells were exposed to the inhibitors or siRNA for 3 days.
U2OS WT cells (300,000) were seeded in a 6-well plate, a subset of them was treated with either control siRNA or siRNA targeting MUS81. After adhesion, cells were treated with the respective inhibitors for 72 h during which CPT (100 μM, Sigma-Aldrich) was added for the last 2 h. Cells were harvested, washed in ice-cold PBS, and collected by centrifugation at 500g for 5 min. Cells were simultaneously stained with FITC-labeled annexin V antibody (556419, Becton Dickinson) and PI (5 μL) at room temperature for 15 min, protected from light. Stained cells were analyzed using a BD FACSVerse flow cytometer (Becton Dickinson) and FlowJo software (BD Life Sciences). At least 20,000 cells were used for each measurement, and experiments were performed in duplicates.

A further data set relates to EJ5-GFP cells. Nature of the data set: I-SceI-based NHEJ repair reporter assay. Conditions: 72 h. The format is cell-based. As to the method: 3 MUS81 inhibitors suppress HR and BIR. (A) I-SceI-based BIR repair efficiency was measured in U2OS BIR-GFP cells treated with DMSO, two different siRNAs targeting MUS81, or the indicated concentrations of MU262 and MU876, and their control analogues for 72 h. The percentage of repair was normalized to the DMSO-treated control (D). n = 3. Error bars represent standard deviation (s.d.); ****p <0.0001 (unpaired, two-tailed t-test). […] (C,D) I-SceI-based HR (C) and NHEJ (D) repair efficiency was measured using U2OS DR-GFP and EJ5-GFP cells, respectively, following treatment with DMSO, MU262,MU876, or their control analogues for 72 h. The percentage of repair was normalized to the DMSO-treated control. n = 3. Error bars represent s.d.; *p <0.05, **p <0.01, ****p <0.0001 (unpaired, two-tailed t-test).
Reporter DR-GFP and […] U2OS cells along with BIR-GFP cells were transfected with 2.5 μg of I-SceI-expressing pCAGGS vector and subsequently treated with MUS81 inhibitors at the indicated concentrations. After transfection (72 h), cells were trypsinized and resuspended in 3% BSA in PBS. GFP fluorescence detection was carried out using a BD FACSVerse flow cytometer, and the data were analyzed with FlowJo software (BD Life Sciences). Data presented in the graph were normalized to the DMSO-treated sample.
(In a reporter assay the amount or activity of a reporter protein is the signal.)

The next data set in a line: Microsomal stability. The format is in vitro ADME.

Molecules are shown by their SMILES.

Regarding `CCc1nn2c(O)c(-c3nc4ccccc4[nH]3)nnc2c1-c1ccc(F)cc1` [Compound 18, 3-(1H-Benzo[d]imidazole-2-yl)-7-ethyl-8-(4-fluorophenyl)pyrazolo[5,1-c][1,2,4]triazin-4-ol], the “γH2AX foci following cisplatin treatment” value in the data set on CAL51 WT cells was “significantly reduced the number of γH2AX foci in a concentration-dependent manner”. The “apoptosis (Annexin V staining)” value in the data set on U2OS cells was “no increase in apoptosis”. For the same compound, the “effect on NHEJ” value in the data set on EJ5-GFP cells is “no negative effect”. In addition, the microsomal stability entry in the data set “Microsomal stability” was “good microsomal stability”.

In the case of `Cc1cc(=O)[nH]c(-n2nc(-c3ccccc3)cc2NC(=O)c2cc(-c3ccccc3)on2)n1` [Compound 32, N-(1-(4-Methyl-6-oxo-1,6-dihydropyrimidin-2-yl)-3-phenyl-1H-pyrazol-5-yl)-5-phenylisoxazole-3-carboxamide], in the data set with CAL51 WT cells, the “γH2AX foci following cisplatin treatment” value is “significantly reduced the number of γH2AX foci in a concentration-dependent manner”. Also, the “apoptosis (Annexin V staining)” value with U2OS cells is on record as “no increase in apoptosis”. The “effect on NHEJ” value with EJ5-GFP cells was “no negative effect”. Also, the microsomal stability entry in the data set “Microsomal stability” was “good microsomal stability”.
